Source: the supplement of paper PMC11368000

Legend:
Conditions in all cases: exposure time: 90 min
30145 [1] = donor line of iPSC-derived cardiomyocytes; assay: POD (EC05) for increase in beat frequency (positive chronotrope) vs vehicle; higher = less potent (higher point of departure)
Procedure, shortened: (§1)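 Cardiomyocytes derived from human iPSCs of 16 donors were grown 14 days in gelatin-coated 384-well plates, loaded 2 h with a fluorescent Ca2+ dye, then exposed for 90 min at 37 °C to final concentrations of 0.1, 1, 10 and 100 µM in 0.5% DMSO. A FLIPR Tetra recorded Ca2+ flux at 8 frames/s for 100 s before and after exposure. Points of departure for each donor were derived by hierarchical Bayesian Hill fitting of vehicle-normalised beat frequency, decay-to-rise ratio or peak frequency. The thresholds applied were a 5% change, or a 95% loss for peak frequency.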

30171 = donor line of iPSC-derived cardiomyocytes; assay: POD (EC05) for decrease in beat frequency (negative chronotrope) vs vehicle; higher = less potent (higher point of departure)
Protocol: (§2)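 Human iPSC-derived cardiomyocytes from 16 donors were exposed for 90 min at 37 °C to each PFAS at 0.1, 1, 10 and 100 µM in 0.5% DMSO, 384-well plates. Kinetic Ca2+ flux (FLIPR) and Hoechst nuclei counts were normalised to vehicle wells and fitted with a hierarchical Bayesian Hill model to give donor-specific PODs: EC05 for beat-rate increase or decrease and for decay-to-rise ratio increase (QT proxy), EC95 for peak-frequency loss (asystole), EC10 for total cell number loss. 0.03 µM is the lower bound.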

1309 = donor line of iPSC-derived cardiomyocytes; assay: as above
Protocol: as §2

1118 = donor line of iPSC-derived cardiomyocytes; assay: as above
Protocol: as §2

1434 = donor line of iPSC-derived cardiomyocytes; assay: as above
Protocol: as §2

20032 = donor line of iPSC-derived cardiomyocytes; assay: as above
Protocol: as §2

1368 = donor line of iPSC-derived cardiomyocytes; assay: as above
Protocol: as §2

1531 [2] = donor line of iPSC-derived cardiomyocytes; assay: as above
Protocol: as §2

20084 = donor line of iPSC-derived cardiomyocytes; assay: as above
Protocol: as §2

1518 [3] = donor line of iPSC-derived cardiomyocytes; assay: as above
Protocol: as §2

11235 = donor line of iPSC-derived cardiomyocytes; assay: as above
Protocol: as §2

1392 = donor line of iPSC-derived cardiomyocytes; assay: as above
Protocol: as §2

1535 = donor line of iPSC-derived cardiomyocytes; assay: as above
Protocol: as §2

1516 [4] = donor line of iPSC-derived cardiomyocytes; assay: as above
Protocol: as §2

1083 = donor line of iPSC-derived cardiomyocytes; assay: as above
Protocol: as §2

30145 [5] = assay: as above
Protocol: as §2

1565 = donor line of iPSC-derived cardiomyocytes; assay: as above
Protocol: as §2

1518 [6] = assay: POD (EC05) for increase in Ca2+ transient decay-to-rise ratio (QT prolongation) vs vehicle; higher = less potent (higher point of departure)
Procedure, shortened: as §1

1516 [7] = assay: as above
Procedure, shortened: as §1

1531 [8] = assay: as above
Procedure, shortened: as §1

| SMILES | POD vs vehicle 30145 [1] [µM] | POD vs vehicle 30171 [µM] | POD vs vehicle 1309 [µM] | POD vs vehicle 1118 [µM] | POD vs vehicle 1434 [µM] | POD vs vehicle 20032 [µM] | POD vs vehicle 1368 [µM] | POD vs vehicle 1531 [2] [µM] | POD vs vehicle 20084 [µM] | POD vs vehicle 1518 [3] [µM] | POD vs vehicle 11235 [µM] | POD vs vehicle 1392 [µM] | POD vs vehicle 1535 [µM] | POD vs vehicle 1516 [4] [µM] | POD vs vehicle 1083 [µM] | POD vs vehicle 30145 [5] [µM] | POD vs vehicle 1565 [µM] | POD vs vehicle 1518 [6] [µM] | POD vs vehicle 1516 [7] [µM] | POD vs vehicle 1531 [8] [µM] |
| --- | --- | --- | --- | --- | --- | --- | --- | --- | --- | --- | --- | --- | --- | --- | --- | --- | --- | --- | --- | --- |
| O=C(O)C(F)(F)OC(F)(F)C(F)(F)OC(F)(F)C(=O)O [Perfluoro-3,6-dioxaoctane-1,8-dioic_acid] | > 100 | > 100 | > 100 | > 100 | > 100 | > 100 | > 100 | > 100 | > 100 | > 100 | > 100 | > 100 | > 100 | > 100 | > 100 | > 100 | > 100 | > 100 | > 100 |  |
| O=C(O)C(F)(F)C(F)(F)C(F)F [2,2,3,3,4,4-Hexafluorobutanoic_acid] |  | > 100 | > 100 | > 100 | > 100 | > 100 | > 100 | > 100 | > 100 | > 100 | > 100 | > 100 | > 100 | > 100 | > 100 | > 100 | > 100 |  |  | > 100 |
| O=C(O)C(F)(F)OC(F)(F)C(F)(F)OC(F)(F)F [Perfluoro-3,6-dioxaheptanoic_acid] |  | > 100 | > 100 | > 100 | > 100 | > 100 | > 100 | > 100 | > 100 | > 100 | > 100 | > 100 | > 100 | > 100 | > 100 | > 100 | > 100 |  |  | > 100 |
| O=S(=O)([O-])C(F)(F)C(F)(F)C(F)(F)C(F)(F)F.[K+] [Potassium_perfluorobutanesulfonate] | > 100 | > 100 | > 100 | 33.8 | > 100 | > 100 | > 100 | > 100 | > 100 | > 100 | 67.8 | > 100 | > 100 | > 100 | > 100 | > 100 | > 100 | > 100 | > 100 |  |
| O=C(O)C(F)(F)C(F)(F)C(F)(F)C(F)(F)C(=O)O [Octafluoroadipic_acid] | > 100 | > 100 | > 100 | > 100 | > 100 | > 100 | > 100 | > 100 | > 100 | > 100 | > 100 | > 100 | > 100 | > 100 | > 100 | > 100 | > 100 | > 100 | > 100 |  |
| OCC(F)(F)C(F)(F)C(F)(F)C(F)(F)C(F)(F)C(F)(F)F [6:1 Fluorotelomer alcohol] | > 100 | 24.3 | > 100 | 0.554 | 21.9 | > 100 | 74.9 | > 100 | > 100 | > 100 | 21.5 | > 100 | > 100 | > 100 | 24.6 | > 100 | > 100 |  | > 100 |  |
| OCC(F)(F)C(F)(F)C(F)(F)F [Heptafluorobutanol] |  | > 100 | > 100 | > 100 | > 100 | > 100 | > 100 | > 100 | > 100 | > 100 | > 100 | > 100 | > 100 | > 100 | > 100 | > 100 | > 100 |  |  | > 100 |
| OCCC(F)(F)C(F)(F)C(F)(F)C(F)(F)F [4:2 Fluorotelomer alcohol] |  | > 100 | > 100 | 22.9 | > 100 | > 100 | > 100 | > 100 | > 100 | > 100 | > 100 | > 100 | > 100 | > 100 | > 100 | > 100 | > 100 |  |  |  |
| N=C(N)C(F)(F)C(F)(F)C(F)(F)C(F)(F)C(F)(F)C(F)(F)C(F)(F)F [Perfluorooctanamidine] | > 100 | > 100 | > 100 | 0.128 | > 100 | > 100 | > 100 | > 100 | > 100 | > 100 | 0.499 | > 100 | 2.86 | > 100 | > 100 | > 100 | > 100 |  | > 100 |  |
| O=C(O)C(F)(F)C(F)(F)C(F)(F)OC(F)(C(F)(F)F)C(F)(F)F [Perfluoro-4-isopropoxybutanoic_acid] | > 100 | > 100 | > 100 | > 100 | > 100 | > 100 | > 100 | > 100 | > 100 | > 100 | > 100 | > 100 | > 100 | > 100 | > 100 | > 100 | > 100 | > 100 | > 100 |  |
